Data as given in patent US20120135094A1, “OREGANO AND MINT ANTI-INFLAMMATORY COMPOSITIONS AND METHODS” (RUTGERS, THE STATE UNIVERSITY OF NEW JERSEY, priority 2009, published 2012).

Key:
Format in all cases: cell-based, murine
[1] = tested on: COX-2 protein in RAW 264.7 cells; assay: Western Blotting of LPS-induced COX-2 protein level; details: test compounds 10 and 20 μg/mL, 24 h
Procedure: (§1) FIG. 5 illustrates effects of rosmarinic acid (RosA), oleanolic acid (OA), ursolic acid (UA) and indomethacin on LPS-induced iNOS and COX-2 protein levels in RAW 264.7 cells. The cells were treated with test compounds (10 and 20 μg/mL) for 24 h. Equal amounts of total proteins (50 μg) were subjected to 10% SDS-PAGE. The expression of iNOS, COX-2 and β-actin protein was detected by Western Blot using specific antibodies. Quantification of iNOS and COX-2 protein expression was performed by densitometric analysis of the immunoblot. The values below the figure represent the relative intensity in protein expression of the bands normalized to β-actin.
(§2) RAW 264.7 cells, derived from murine macrophages, were procured from the American Type Culture Collection (Rockville, Md.). The cells were cultured in RPMI-1640 (without phenol red) supplemented with 10% endotoxin-free, heat-inactivated fetal calf serum (GIBCO, Grand Island, N.Y.), 100 units/mL penicillin, and […] streptomycin. When the RAW 264.7 cells reached a density of 2-3×10^6 cells/mL, they were activated by incubation in the medium containing E. coli LPS (lipopolysaccharide, 100 ng/mL). Various concentrations of test compounds dissolved in DMSO (dimethylsulfoxide) were combined together with LPS. The cells were treated with 0.05% DMSO as vehicle control.
(§3) The total proteins, isolated from cells after treatment with test compounds for 24 h, were extracted via addition of 200 μL of gold lysis buffer (50 mM Tris-HCl, pH 7.4; 1 mM NaF; 150 mM NaCl; 1 mM EGTA; 1 mM phenylmethanesulfonyl fluoride; 1% NP-40; and 10 μg/mL leupeptin) to the cell pellets on ice for 30 min, followed by centrifugation for 30 min at 4° C. The cytosolic fraction (supernatant) proteins were measured by Bio-Rad Protein Assay (Bio-Rad Laboratories, Munich, Germany). The samples (50 μg of proteins) were mixed with 5-fold sample buffer containing 0.3 M Tris-HCl (pH 6.8), 25% 2-mercaptoethanol, 12% sodium dodecyl sulfate (SDS), 25 mM EDTA, 20% glycerol, and 0.1% bromophenol blue. […]

[2] = tested on: iNOS protein in RAW 264.7 cells; assay: Western Blotting of LPS-induced iNOS protein level; details: test compounds 10 and 20 μg/mL, 24 h
Procedure: as §1, §2, §3

[3] = tested on: LPS-induced nitrite production in RAW 264.7 macrophages; assay: LPS-induced nitrite production assay (Griess reaction); details: concentration range of 10-100 μg/mL, dose-dependently; LPS 100 ng/mL, 24 h
Procedure: FIG. 4 illustrates anti-inflammatory effect of rosmarinic acid (RosA), ursolic acid (UA) and oleanolic acid (OA) on LPS-induced nitrite production in RAW 264.7 macrophages. The cells were treated with 100 ng/mL of LPS only or with different concentrations of test compounds for 24 h. At the end of incubation time, 100 μL of the culture medium was collected for nitrite assay. The values are expressed as means±standard error of triplicate tests.
as §2, with “Various concentrations of test compounds dissolved in DMSO (dimethylsulfoxide) were combined together with LPS. The cells were treated with 0.05% DMSO as vehicle control.” left out
The RAW 264.7 cells were treated with various compounds and LPS or LPS only. The supernatants were harvested and the amount of nitrite, an indicator of NO synthesis, was measured using the Griess reaction. […] After incubation at room temperature for 10 min, absorbance at 570 nm was measured with the ELISA reader (Thermo Labsystems, Multiskan Ascent, Finland).

Row | Structure (SMILES) | COX-2 protein expression [1] | iNOS protein expression [2] | suppression of NO generation [3]
1 | CC1(C)CC[C@]2(C(=O)O)CC[C@]3(C)C(=CC[C@@H]4[C@@]5(C)CC[C@H](O)C(C)(C)[C@@H]5CC[C@]43C)[C@@H]2C1 [oleanolic acid] | suppressed COX-2 protein expression | reduced expression of iNOS protein | 
2 | O=C(/C=C/c1ccc(O)c(O)c1)O[C@H](Cc1ccc(O)c(O)c1)C(=O)O [rosmarinic acid] | suppressed COX-2 protein expression | reduced expression of iNOS protein | 19-100%
3 | C[C@H]1[C@H](C)CC[C@]2(C(=O)O)CC[C@]3(C)C(=CC[C@@H]4[C@@]5(C)CC[C@H](O)C(C)(C)[C@@H]5CC[C@]43C)[C@H]12 [ursolic acid] | suppressed COX-2 protein expression | reduced expression of iNOS protein | 
